Where “and” joins values, the source holds several entries; their conditions need not be identical. Equal entries are not always repeated.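 Briefly, cells in 96-well plates were exposed to five compound concentrations for 48 h, and endpoints were estimated by linear interpolation. Abbreviation: GI50, concentration required for 50% inhibition of growth. TGI: total growth inhibition.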
Key:
Experiment in all cases: NCI tumour cell line growth inhibition, 48 h
MDA-MB-435 = system: MDA-MB-435
K-562 leukemia = system: K-562 leukemia
HT29 colon = system: HT29 colon
MOLT-4 leukemia = system: MOLT-4 leukemia
LXFL 529 NSCLC = system: LXFL 529 NSCLC
OVCAR-3 ovarian = system: OVCAR-3 ovarian
HOP-62 NSCLC = system: HOP-62 NSCLC
P388 leukemia = system: P388 leukemia
SK-MEL-5 melanoma = system: SK-MEL-5 melanoma
PC-3 prostate = system: PC-3 prostate
HCC-2998 colon = system: HCC-2998 colon
SN12K1 renal = system: SN12K1 renal
M14 melanoma = system: M14 melanoma
OVCAR-8 ovarian = system: OVCAR-8 ovarian
HCT-15 colon = system: HCT-15 colon
A549 NSCLC = system: A549 NSCLC
SNB-75 CNS = system: SNB-75 CNS
SF-268 CNS = system: SF-268 CNS
DLD-1 colon = system: DLD-1 colon
DMS 273 small cell lung = system: DMS 273 small cell lung
786-0 renal = system: 786-0 renal
HCT-116 colon = system: HCT-116 colon
HOP-18 NSCLC = system: HOP-18 NSCLC
SW-620 colon = system: SW-620 colon
NCI-H23 lung = system: NCI-H23 lung
XF 498 CNS = system: XF 498 CNS
SK-MEL-28 melanoma = system: SK-MEL-28 melanoma
SNB-78 CNS = system: SNB-78 CNS
SN12C renal = system: SN12C renal
NCI-H522 lung = system: NCI-H522 lung
SNB-19 CNS = system: SNB-19 CNS
RXF 393 renal = system: RXF 393 renal
NCI-H226 lung = system: NCI-H226 lung
P388/ADR leukemia = system: P388/ADR leukemia
KM12 colon = system: KM12 colon

## COc1cc(C2c3cc4c(cc3[C@@H](Nc3ccc(F)cc3)C3COC(=O)[C@H]23)OCO4)cc(OC)c1O (stereo not given in full)
MDA-MB-435
  TGI: > 100 µM
K-562 leukemia
  TGI: 43 µM
HT29 colon
  TGI: 18.2 µM
MOLT-4 leukemia
  GI50: 0.0657 µM
  TGI: 0.821 µM and 2.26 µM
LXFL 529 NSCLC
  TGI: 46.6 µM
OVCAR-3 ovarian
  TGI: 29.5 µM
HOP-62 NSCLC
  GI50: 0.416 µM
  TGI: 3.3 µM
P388 leukemia
  TGI: 1.61 µM
SK-MEL-5 melanoma
  GI50: 0.806 µM
  TGI: 8.56 µM
PC-3 prostate
  TGI: 23.4 µM
HCC-2998 colon
  TGI: 8.96 µM
SN12K1 renal
  TGI: 12.2 µM
M14 melanoma
  GI50: 0.795 µM
  TGI: 17.4 µM
OVCAR-8 ovarian
  GI50: 0.886 µM
  TGI: 15.6 µM
HCT-15 colon
  TGI: 26.1 µM
A549 NSCLC
  GI50: 0.264 µM
  TGI: 5.17 µM
SNB-75 CNS
  GI50: 0.438 µM
SF-268 CNS
  TGI: 27.7 µM
DLD-1 colon
  TGI: 28.5 µM
DMS 273 small cell lung
  GI50: 0.403 µM
  TGI: 6.46 µM
786-0 renal
  GI50: 0.567 µM
  TGI: 5.26 µM
HCT-116 colon
  TGI: 22.3 µM
HOP-18 NSCLC
  TGI: 46.8 µM
SW-620 colon
  GI50: 0.859 µM
  TGI: 44.8 µM
NCI-H23 lung
  GI50: 0.386 µM
  TGI: 7.56 µM
XF 498 CNS
  GI50: 0.718 µM
  TGI: 18.2 µM
SK-MEL-28 melanoma
  TGI: 48.3 µM
SNB-78 CNS
  TGI: 99.2 µM
SN12C renal
  GI50: 0.718 µM
  TGI: 9.64 µM
NCI-H522 lung
  GI50: 0.823 µM
  TGI: 9.12 µM
SNB-19 CNS
  GI50: 0.569 µM
  TGI: 33.9 µM
RXF 393 renal
  TGI: 11.4 µM
NCI-H226 lung
  GI50: 0.529 µM
  TGI: 0.985 µM and 5.18 µM
P388/ADR leukemia
  TGI: 1.63 µM
KM12 colon
  TGI: 13.5 µM
